Like-named read-outs stand apart in the source and are kept apart here.
Assays:
Assay in all cases: Kinase panel profiling at 1 µmol/L (MSA or IMAP), percentage inhibition
Format in all cases: biochemical
[1] = target: panel of 255 wild-type kinases (Homo sapiens, UniProt P42684); conditions: ARG kinase assay; 1 µmol/L single concentration; read-out: %-inhibition ARG
[2] = target: T1, panel of 255 wild-type kinases (Homo sapiens, UniProt P52333); conditions: read-out: %-inhibition at 1 µmol/L, JAK3
T1 sequence (P52333 1-1124): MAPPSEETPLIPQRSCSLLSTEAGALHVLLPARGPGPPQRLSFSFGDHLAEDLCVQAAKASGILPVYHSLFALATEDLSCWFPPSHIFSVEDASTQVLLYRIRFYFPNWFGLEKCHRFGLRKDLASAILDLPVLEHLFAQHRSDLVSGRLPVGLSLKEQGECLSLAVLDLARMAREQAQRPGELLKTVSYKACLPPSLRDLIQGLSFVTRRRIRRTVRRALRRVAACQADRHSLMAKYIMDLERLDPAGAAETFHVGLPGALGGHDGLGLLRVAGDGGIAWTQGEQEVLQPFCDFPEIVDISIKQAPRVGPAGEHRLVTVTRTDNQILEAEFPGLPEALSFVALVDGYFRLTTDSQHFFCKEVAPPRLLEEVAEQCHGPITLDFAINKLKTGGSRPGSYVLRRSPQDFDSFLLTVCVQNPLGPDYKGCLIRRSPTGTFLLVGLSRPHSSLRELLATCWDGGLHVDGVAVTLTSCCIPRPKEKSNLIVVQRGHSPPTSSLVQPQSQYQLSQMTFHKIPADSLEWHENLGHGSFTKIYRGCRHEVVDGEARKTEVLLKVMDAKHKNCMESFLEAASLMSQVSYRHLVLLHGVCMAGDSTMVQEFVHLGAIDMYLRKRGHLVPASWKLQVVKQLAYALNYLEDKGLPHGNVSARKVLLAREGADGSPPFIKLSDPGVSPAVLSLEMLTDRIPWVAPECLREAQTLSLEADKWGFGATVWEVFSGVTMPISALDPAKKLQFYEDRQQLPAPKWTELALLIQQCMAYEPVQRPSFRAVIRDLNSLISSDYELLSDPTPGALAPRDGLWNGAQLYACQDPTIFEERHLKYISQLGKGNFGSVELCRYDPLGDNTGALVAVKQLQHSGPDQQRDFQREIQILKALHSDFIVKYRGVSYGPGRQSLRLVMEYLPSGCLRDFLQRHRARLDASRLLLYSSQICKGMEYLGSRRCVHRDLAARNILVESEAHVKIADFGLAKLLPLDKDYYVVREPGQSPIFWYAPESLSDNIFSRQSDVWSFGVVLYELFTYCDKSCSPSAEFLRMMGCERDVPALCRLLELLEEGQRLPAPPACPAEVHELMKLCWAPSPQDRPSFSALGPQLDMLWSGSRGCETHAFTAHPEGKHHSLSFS

[3] = target: panel of 255 wild-type kinases (Homo sapiens, UniProt Q9HBH9); conditions: MNK2; 1 µmol/L single concentration; read-out: %-inhibition, MNK2
[4] = target: panel of 255 wild-type kinases (Homo sapiens, UniProt Q9NQU5); conditions: PAK6; 1 µmol/L single concentration; read-out: %-inhibition, PAK6
[5] = target: panel of 255 wild-type kinases (Homo sapiens, UniProt Q9H4A3); conditions: kinase WNK1; 1 µmol/L single concentration; read-out: %-inhibition at 1 µmol/L, WNK1
[6] = target: panel of 255 wild-type kinases (Homo sapiens, UniProt Q15208); conditions: NDR1; 1 µmol/L single concentration; read-out: %-inhibition, NDR1
[7] = target: panel of 255 wild-type kinases (Homo sapiens, UniProt P21802); conditions: kinase FGFR2; 1 µmol/L single concentration; read-out: %-inhibition at 1 µmol/L, FGFR2
[8] = target: panel of 255 wild-type kinases (Homo sapiens, UniProt Q13164); conditions: kinase Erk5; 1 µmol/L single concentration; read-out: %-inhibition at 1 µmol/L, Erk5
[9] = target: panel of 255 wild-type kinases (Homo sapiens, UniProt P29597); conditions: kinase TYK2; 1 µmol/L single concentration; read-out: %-inhibition at 1 µmol/L, TYK2
[10] = target: panel of 255 wild-type kinases (Homo sapiens, UniProt Q14289); conditions: kinase PYK2; 1 µmol/L single concentration; read-out: %-inhibition at 1 µmol/L, PYK2
[11] = target: panel of 255 wild-type kinases (Homo sapiens, UniProt O75676); conditions: MSK2; 1 µmol/L single concentration; read-out: %-inhibition, MSK2
[12] = target: panel of 255 wild-type kinases (Homo sapiens, UniProt P45983); conditions: kinase JNK1; 1 µmol/L single concentration; read-out: %-inhibition at 1 µmol/L, JNK1
[13] = target: panel of 255 wild-type kinases (Homo sapiens, UniProt P19784); conditions: kinase CK2α2/β; 1 µmol/L single concentration; read-out: %-inhibition at 1 µmol/L, CK2α2/β
[14] = target: panel of 255 wild-type kinases (Homo sapiens, UniProt P22455); conditions: kinase FGFR4; 1 µmol/L single concentration; read-out: %-inhibition at 1 µmol/L, FGFR4
[15] = target: panel of 255 wild-type kinases (Homo sapiens, UniProt Q9NYA1); conditions: kinase SPHK1; 1 µmol/L single concentration; read-out: %-inhibition at 1 µmol/L, SPHK1
[16] = target: panel of 255 wild-type kinases (Homo sapiens, UniProt P49759); conditions: kinase CLK1; 1 µmol/L single concentration; read-out: %-inhibition at 1 µmol/L, CLK1
[17] = target: panel of 255 wild-type kinases (Homo sapiens, UniProt P07333); conditions: kinase FMS; 1 µmol/L single concentration; read-out: %-inhibition at 1 µmol/L, FMS
[18] = kinase JAK3, 1 µmol/L single concentration

Compound	inhibition at 1 µM [1]	inhibition at 1 µM [2, 18]	inhibition at 1 µM [3]	inhibition at 1 µM [4]	inhibition at 1 µM [5]	inhibition at 1 µM [6]	inhibition at 1 µM [7]	inhibition at 1 µM [8]	inhibition at 1 µM [9]	inhibition at 1 µM [10]	inhibition at 1 µM [11]	inhibition at 1 µM [12]	inhibition at 1 µM [13]	inhibition at 1 µM [14]	inhibition at 1 µM [15]	inhibition at 1 µM [16]	inhibition at 1 µM [17]	inhibition at 1 µM [2]
CO[C@]1(C(=O)N[C@@H](C)c2ccc(-n3cc(F)cn3)nc2)CC[C@H](c2nc(C)cc(Nc3cc(C)[nH]n3)n2)CC1 [pralsetinib]	38%	96%	2%	42%	-2.67%	7.54%	98%	0.775%	91%	64%	3.18%	-5%	4.29%	85%	0.199%	32%	94%	
COc1cc2ncnc(Nc3ccc(F)c(Cl)c3)c2cc1NC(=O)/C=C/CN1CCCCC1 [dacomitinib]	40%	28%	76%	6.65%	-4%	-0.0726%	16%	0.172%	6.51%	1.4%	6%	1.07%	1.11%	-4.42%	-15%	19%	8.55%	
CCn1c(=O)c(-c2cc(NC(=O)Nc3ccccc3)c(F)cc2Br)cc2cnc(NC)cc21 [ripretinib]	56%	7%	5%	1.15%	-5%	0.881%	72%	0.452%	4.46%	19%	3%	4%	-0.613%	11%	-19%	1%	71%	
Cc1nc(NC(=O)N2CCC[C@H]2C(N)=O)sc1-c1ccnc(C(C)(C)C(F)(F)F)c1 [alpelisib]	3.28%	0.447%	8%	10%	-4%	0.245%	7%	0.367%	-4%	-4%	0.0558%	-5%	-1.53%	9%	-5.44%	59%	14%	
C=CC(=O)N1CCC([C@@H]2CCNc3c(C(N)=O)c(-c4ccc(Oc5ccccc5)cc4)nn32)CC1 [zanubrutinib]	-3.68%		-5%	11%	0%	-1.86%	2.54%	3.76%	-2.32%	5.37%	-4%	-3.49%	-4%	7.51%	-15%	4.66%	-7%	10%
C[C@H]1Oc2cc(cnc2N)-c2c(nn(C)c2C#N)CN(C)C(=O)c2ccc(F)cc21 [lorlatinib]	1.49%	6.62%	13%	14%	0.826%	3.5%	5.32%	38%	5%		-3.24%	-0.746%	-2.41%	20%	-7%	-2.47%	32%	
CCN1CCN(c2ccc(Nc3cc(N(C)C(=O)Nc4c(Cl)c(OC)cc(OC)c4Cl)ncn3)cc2)CC1 [infigratinib]	24%	7%	-1.83%	10%	-4.6%	1.4%		30%	-3%	13%	-0.703%	-3.19%	-2.17%		-14%	10%	96%	
CCN1C(=O)N(c2c(F)c(OC)cc(OC)c2F)Cc2cnc3[nH]c(CN4CCOCC4)cc3c21 [pemigatinib]	7%	0.2%	-7.4%	12%	-3.59%	-4.31%		97%	-6.39%	8%	-3.61%	-4.3%	-5%	100%	-13%	5%	93%	
Cn1cc(-c2cc3c(N4CCN(c5ncc([C@@](C)(N)c6ccc(F)cc6)cn5)CC4)ncnn3c2)cn1 [avapritinib]	47%	64%	29%	9%	-5.32%	-1.28%	62%	1.78%	16%	1%	5%	-4.54%	-1.79%	41%	-1.72%			

From PMC9516332 (Frontiers in Oncology, 2022)
